Experiments:
HBE cells [1] = test: Tritiated thymidine incorporation (proliferation) in HBE cells; assay type: cell-based, human; details: 96 h, 100 nM
Experimental: (§1) After seeding, cells were cultured for 24 h in serum and phenol red free medium. Then treatments were carried out in a phenol red free medium containing 5% dextran-charcoal stripped serum. Cells were treated with P or DEX (100 nM), alone or in combination with UPA, RU (1 nM to 1 μM) or CDB-3877 (100 nM). Control cells were treated with ethanol, at […] 1:1000 final ethanol concentration alone as vehicle or E2 (10 nM).
(§2) After 24 h of hormonal treatment, cells were incubated with [methyl-1 3H] thymidine (Perkin Elmer, Courtaboeuf, France) for 48 h or 20 h for KBE or cancer cells, respectively at 37° C. After incubation cells were washed twice with PBS 1× and once with 5% trichloroacetic acid (TCA). Cells were incubated in 5% TCA for 15 min at 4° C. and lysed in NaOH 0.1 N for 30 min at 37° C. The total cell lysate was added to 5 ml of Ecolite scintillation liquid (MP biomedical, Illkirch, France) and radioactivity was counted with a β-counter HIDEX 300SL (ScienceTec, Courtaboeuf, France).

T-47D cells [2] = test: Apoptosis, sub-G1 quantification by flow cytometry in T-47D cells; assay type: cell-based, human; details: 48 h, 100 nM
Experimental: as §1
(§3) After 96 h or 48 h of hormonal treatment, respectively, for HBE or MCF-7 and T-47D cells, cells were washed in PBS, matrix dissociated with accutase enzyme (PAA laboratory, Les Mureaux, France), and centrifuged 5 minutes at 1350 rpm. Cells were fixed and frozen at −20° C. in 70% ethanol. Before analysis, cells were washed in PBS and stained with 10 μg/ml propidium iodide in PBS (containing 0.835 U/ml RNase A) (Sigma, St Quentin Fallavier, France). For each sample at least 10 000 cells were counted in a BD LSR II flow cytometer (BD Biosciences, Le Pont de Claix, France). After gating out doublets and debris, cycle distribution was analyzed using the ModFit LT software (Verity Software House, USA).

T-47D cells [3] = test: Tritiated thymidine incorporation (proliferation) in T-47D cells; assay type: cell-based, human; details: 48 h, 100 nM
Experimental: as §1, §2

[4] = test system: PR target genes (FASN, cyclin A, BCL2, ALPL); test: qRT-PCR mRNA expression of PR target genes in HBE cells; assay type: cell-based, human; details: P and/or UPA 100 nM, E2 10 nM
Experimental: as §1
(§4) Total RNA was extracted using TriZOL Reagent (Invitrogen, Cergy-Pontoise, France).
(§5) 2 μg of total RNA was subjected to reverse transcription (RT) using random primers for 1 h at 37° C. 2 μl of RT product was diluted (1:10) and subjected to quantitative PCR using sequence specific primers (300 nM) and Brillant SYBR GREEN QPCR master mix (Fermentas, Saint-Rémy-lès-Chevreuse, France) on an Mx3000P apparatus (Agilent Technologies, Massy, France). Conditions were 1 cycle at 95° C. for 10 min followed by 40 cycles at 95° C. for 30 sec, 60° C. for 1 min and 72° C. for 30 sec. Gene expression values were normalized to the housekeeping gene 36B4. Time of steroid treatment was chosen to get the optimal stimulation for a given gene. ALPL and G0S8 mRNA were analyzed after 6 h of treatment. IEX-1, FASN, and BCL2 were analyzed after 24 h of treatment. Cyclin A mRNA was analyzed after 24 h for GR responses or 48 h for PR responses.

HBE cells [5] = test: Apoptosis, sub-G1 quantification by flow cytometry in HBE cells; assay type: cell-based, human; details: 96 h, 100 nM
Experimental: as §1, §3

[6] = test system: PR target genes (FASN, cyclin A, BCL2, ALPL); test: qRT-PCR mRNA expression of PR target genes in T-47D cells; assay type: cell-based, human; details: P and/or UPA 100 nM
Experimental: as §1, §4, §5

[7] = Hormone concentrations in serum of pellet-treated athymic mice; assay type: in vivo; details: female, NMRI nu/nu athymic, mouse, other: steroid pellets grafted onto the neck, 20 mg pellet (P from day 14, UPA from day 1), day 28, read-out: concentration in mice serum (mean±SEM)
Experimental: Four weeks old ovariectomized female NMRInu/nu 20 athymic mice were purchased from Janvier laboratory (Le Genest Saint Isle, France). Breast tissues samples were obtained from 6 women (aged 29-42 years). Human mammary gland tissue was cut into 2×2×2 mm fragments and 4 fragments were then subcutaneously xenografted onto the back of 4 mice per group. Four treatment groups were performed: control, E2, E2+P and E2+P+UPA. Treatments were administered by grafting steroid pellets onto the neck of each mouse. The experimental conditions were initially determined by using a dose range of hormones mixed with cholesterol into the pellets. Blood sample assays were performed after 2 weeks and 4 weeks of treatment to measure plasmatic hormonal concentrations. Finally, the dose of 0.3 mg for E2 and 20 mg for P and UPA were used, as it provides the expected blood concentrations. For the control groups, pellets containing only cholesterol were used. To reproduce menstrual cycle conditions, mice were grafted on the first day of experiment with cholesterol, E2 and/or UPA containing pellets and on the fourteen day with cholesterol or progesterone containing pellets in control and E2 groups, or in E+P and E2+P+UPA groups, respectively. Twenty eight days after the start of experiment, mice were sacrificed. Blood was collected for each mouse, and serum was frozen at −20° C. until hormone concentrations
Estradiol was measured by radioimmunoassay using Clinical Assays Estradiol-2 (Sorin Biomedica Diagnostics SpA, Saluggia, Italia). Progesterone levels were evaluated by UPLC-MSMS using Acquity UPLC and Quattro Premier XE (Waters, Milford Mass., USA).
UPA concentrations were measured using LC-MS/MS technique by MPI Research (State College, Pa., USA).

PR = biological target: T1, PR (Homo sapiens, UniProt P06401); test: MMTV-Luc reporter gene transactivation in HBE cells (MMTV-Luc alone); assay type: cell-based; details: P 100 nM, p<0.05
T1 sequence (P06401 1-933): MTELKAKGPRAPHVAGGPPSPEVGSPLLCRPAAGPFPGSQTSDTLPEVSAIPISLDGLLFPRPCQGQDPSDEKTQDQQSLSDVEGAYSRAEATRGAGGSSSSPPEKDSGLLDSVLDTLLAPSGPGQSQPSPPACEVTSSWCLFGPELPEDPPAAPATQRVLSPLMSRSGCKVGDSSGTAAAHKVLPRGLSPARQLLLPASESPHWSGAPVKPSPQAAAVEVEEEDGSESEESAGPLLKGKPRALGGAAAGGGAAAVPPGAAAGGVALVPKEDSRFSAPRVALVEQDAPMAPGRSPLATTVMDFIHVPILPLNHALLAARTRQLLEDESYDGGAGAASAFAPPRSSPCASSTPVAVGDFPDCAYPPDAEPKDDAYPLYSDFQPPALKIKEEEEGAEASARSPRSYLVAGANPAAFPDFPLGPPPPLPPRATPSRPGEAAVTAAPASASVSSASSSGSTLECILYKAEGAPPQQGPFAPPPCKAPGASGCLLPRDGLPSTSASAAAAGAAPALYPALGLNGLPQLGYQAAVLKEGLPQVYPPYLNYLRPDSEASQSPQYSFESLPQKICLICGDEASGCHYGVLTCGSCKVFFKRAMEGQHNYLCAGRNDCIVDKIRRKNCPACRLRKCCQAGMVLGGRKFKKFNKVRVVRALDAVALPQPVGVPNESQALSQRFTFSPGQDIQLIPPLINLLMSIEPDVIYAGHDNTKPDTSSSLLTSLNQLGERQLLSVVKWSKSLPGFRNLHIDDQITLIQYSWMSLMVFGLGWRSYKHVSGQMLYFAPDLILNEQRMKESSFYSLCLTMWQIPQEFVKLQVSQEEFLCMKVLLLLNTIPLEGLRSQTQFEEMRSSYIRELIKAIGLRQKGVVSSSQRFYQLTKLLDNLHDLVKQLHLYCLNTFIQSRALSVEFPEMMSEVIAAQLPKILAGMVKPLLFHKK
Experimental: T-47D and MCF-7 cell lines were respectively maintained in RPMI 1640 and in DMEM medium supplemented with 10% fetal calf serum (PAA Laboratory, Les Mureaux, France). […] Normal human breast epithelial cell (HBE) primary cultures were obtained from 20 women (aged 17-50 years). […] HBE cells were maintained in HAM F10 medium (PAA Laboratory, Les Mureaux, France) containing hydrocortisone (5 ng/ml), Triiodo-L-thyronine (6.5 ng/ml), choleratoxin (10 ng/ml), transferrin (5 mg/ml), insulin (0.016 U/ml), epidermal growth factor (10 ng/ml) (Sigma, St Quentin Fallavier, France) and 5% human serum (Etablissement Français du Sang). […]
Cells were transfected with reporter gene plasmids containing glucocorticoid and progesterone responsive elements (GRE/PRE): 1) the MMTV-Luc is a Mouse Mammary Tumor Virus Long Terminal Repeat promoter containing one GRE/PRE palindrome and three GRE/PRE hemi-palindromes upstream to firefly luciferase gene in pFC31 vector, 2) the GRELuc contains six copies of GRE/PRE palindrome upstream to firefly luciferase gene in pBL vector. […] At the end of the experiment, cells were lysed and luciferase activity was determined using the Luciferase Assay System (Promega, Charbonnières-les-bains, France). Beta galactosidase activity was assessed using the Galacto Star kit (Applied Biosystems, Courtaboeuf, France) to normalize luciferase activity data.

## CC(=O)[C@H]1CC[C@H]2[C@@H]3CCC4=CC(=O)CC[C@]4(C)[C@H]3CC[C@]12C [P, progesterone]
HBE cells [1]
  cell proliferation ([3H] thymidine incorporation), compound alone: anti-proliferative effect
T-47D cells [2]
  cell apoptosis (sub-G1 percentage), compound alone: increased the percentage of sub-G1 cells
T-47D cells [3]
  cell proliferation ([3H] thymidine incorporation), compound alone: anti-proliferative activity
[4]; 24 h
  BCL2 mRNA expression (PR response): decrease of BCL2 mRNA expression by P
  FASN mRNA expression: induction of FASN mRNA expression
[4]; 48 h
  cyclin A mRNA expression (PR response): down regulated cyclin A mRNA expression
HBE cells [5]
  cell apoptosis (sub-G1 percentage), compound alone: intense pro-apoptotic effect
[6]; 6 h
  ALPL mRNA expression: strong P mediated induction of ALPL transcript
[6]; 24 h
  FASN mRNA expression: induction of FASN mRNA expression
[6]; 24 h, p<0.01
  BCL2 mRNA expression (PR response): decrease of BCL2 mRNA expression by P
[6]; 48 h
  cyclin A mRNA expression (PR response): down regulated cyclin A mRNA expression
[7]
  concentration at 28 days: 13.1 ± 1.14 ng/mL
PR
  luciferase expression (MMTV-Luc): 1.38±0.11 control fold induction

Reference: patent US9814732B2, “Ulipristal acetate for prevention and treatment of breast tumors” (LABORATOIRE HRA-PHARMA, priority 2012, dated 2017)
